From patent publication US20050197350A1, “Novel quinoline, tetrahydroquinazoline, and pyrimidine derivatives and methods of treatment related to the use thereof” (TAISHO PHARMACEUTICAL CO., LTD., priority 2003, published 2005)

Test system: MCH receptors
Assay: MCH receptor activity class (method not given)
Conditions: class by percent of control at 10^-7 M or IC50

**Q.** With `CN(C)c1ccnc(N[C@H]2CC[C@@H](NC(=O)c3ccc(-c4ccc(Cl)cc4[N+](=O)[O-])o3)CC2)n1` [compound 815, 5-(4-chloro-2-nitrophenyl)-N-(cis-4-{[4-(dimethylamino)pyrimidin-2-yl]amino}cyclohexyl)-2-furamide] as the compound, how does the class read?
**A.** 1 (Class 1: The value of percent of control at 10^−7 M was less than 40% or the value of IC50 was less than 50 nM.)

**Q.** `CN(C)c1ccnc(N[C@H]2CC[C@@H](NC(=O)c3ccc(Cl)s3)CC2)n1` [compound 816] was tested. Which class did it give?
**A.** 3 (Class 3 The value of percent of control at 10^−7 M was more than 60% or the value of IC50 was more than 200 nM.)

**Q.** `CN(C)c1ccnc(N[C@H]2CC[C@@H](NC(=O)CCc3ccccc3O)CC2)n1` [compound 818] was tested. Which class did it give?
**A.** 3 (Class 3 The value of percent of control at 10^−7 M was more than 60% or the value of IC50 was more than 200 nM.)

**Q.** For `CN(C)c1ccnc(N[C@H]2CC[C@@H](NC(=O)c3ccc(I)o3)CC2)n1` [compound 819, N-(cis-4-{[4-(dimethylamino)pyrimidin-2-yl]amino}cyclohexyl)-5-iodo-2-furamide], which class is on record?
**A.** 2 (Class 2: The value of percent of control at 10^−7 M was from 40% to 60% or the value of IC′50 was from 50 nM to 200 nM.)

**Q.** Which class does the source give for `CN(C)c1ccnc(N[C@H]2CC[C@@H](NC(=O)Cc3ccccc3I)CC2)n1` [compound 820] here?
**A.** 3 (Class 3 The value of percent of control at 10^−7 M was more than 60% or the value of IC50 was more than 200 nM.)

**Q.** `COc1ccc2[nH]c(C)c(CC(=O)N[C@H]3CC[C@@H](Nc4nccc(N(C)C)n4)CC3)c2c1` [compound 821] was tested. Which class did it give?
**A.** 3 (Class 3 The value of percent of control at 10^−7 M was more than 60% or the value of IC50 was more than 200 nM.)

**Q.** For `CN(C)c1ccnc(N[C@H]2CC[C@@H](NC(=O)/C=C/c3cccc([N+](=O)[O-])c3)CC2)n1` [compound 822], which class is on record?
**A.** 3 (Class 3 The value of percent of control at 10^−7 M was more than 60% or the value of IC50 was more than 200 nM.)

**Q.** With `CN(C)c1ccnc(N[C@H]2CC[C@@H](NC(=O)c3ccccc3Cc3ccccc3)CC2)n1` [compound 824] as the compound, how does the class read?
**A.** 3 (Class 3 The value of percent of control at 10^−7 M was more than 60% or the value of IC50 was more than 200 nM.)

**Q.** With `CN(C)c1ccnc(N[C@H]2CC[C@@H](NC(=O)C(c3ccc(Cl)cc3)c3ccc(Cl)cc3)CC2)n1` [compound 825] as the compound, how does the class read?
**A.** 3 (Class 3 The value of percent of control at 10^−7 M was more than 60% or the value of IC50 was more than 200 nM.)

**Q.** Which class does the source give for `Cc1ccc(-c2ccc(C(=O)N[C@H]3CC[C@@H](Nc4nccc(N(C)C)n4)CC3)o2)c([N+](=O)[O-])c1` [compound 826, N-(cis-4-{[4-(dimethylamino)pyrimidin-2-yl]amino}cyclohexyl)-5-(4-methyl-2-nitrophenyl)-2-furamide] here?
**A.** 2 (Class 2: The value of percent of control at 10^−7 M was from 40% to 60% or the value of IC′50 was from 50 nM to 200 nM.)

**Q.** Which class does the source give for `CN(C)c1ccnc(N[C@H]2CC[C@@H](NC(=O)c3ccc([N+](=O)[O-])s3)CC2)n1` [compound 827, N-(cis-4-{[4-(dimethylamino)pyrimidin-2-yl]amino}cyclohexyl)-5-nitrothiophene-2-carboxamide] here?
**A.** 2 (Class 2: The value of percent of control at 10^−7 M was from 40% to 60% or the value of IC′50 was from 50 nM to 200 nM.)

**Q.** For `Cc1cc(C(=O)N[C@H]2CC[C@@H](Nc3nccc(N(C)C)n3)CC2)ccc1[N+](=O)[O-]` [compound 828, N-(cis-4-{[4-(dimethylamino)pyrimidin-2-yl]amino}cyclohexyl)-3-methyl-4-nitrobenzamide], which class is on record?
**A.** 2 (Class 2: The value of percent of control at 10^−7 M was from 40% to 60% or the value of IC′50 was from 50 nM to 200 nM.)

**Q.** Which class does the source give for `COc1cc(C(=O)N[C@H]2CC[C@@H](Nc3nccc(N(C)C)n3)CC2)ccc1[N+](=O)[O-]` [compound 829, N-(cis-4-{[4-(dimethylamino)pyrimidin-2-yl]amino}cyclohexyl)-3-methoxy-4-nitrobenzamide] here?
**A.** 1 (Class 1: The value of percent of control at 10^−7 M was less than 40% or the value of IC50 was less than 50 nM.)

**Q.** For `CN(C)c1ccnc(N[C@H]2CC[C@@H](NC(=O)c3cn(Cc4ccccc4)c4ccccc34)CC2)n1` [compound 830, 1-benzyl-N-(cis-4-{[4-(dimethylamino)pyrimidin-2-yl]amino}cyclohexyl)-1H-indole-3-carboxamide], which class is on record?
**A.** 2 (Class 2: The value of percent of control at 10^−7 M was from 40% to 60% or the value of IC′50 was from 50 nM to 200 nM.)

**Q.** With `CC(=O)c1cccc(C(=O)N[C@H]2CC[C@@H](Nc3nccc(N(C)C)n3)CC2)c1` [compound 831] as the compound, how does the class read?
**A.** 2 (Class 2: The value of percent of control at 10^−7 M was from 40% to 60% or the value of IC′50 was from 50 nM to 200 nM.)

**Q.** With `CN(C)c1ccnc(N[C@H]2CC[C@@H](NC(=O)C3CCCC[C@H]3C(=O)c3ccccc3)CC2)n1` (stereo partly drawn) [compound 832] as the compound, how does the class read?
**A.** 3 (Class 3 The value of percent of control at 10^−7 M was more than 60% or the value of IC50 was more than 200 nM.)

**Q.** With `CN(C)c1ccnc(N[C@H]2CC[C@@H](NC(=O)c3ccc(Br)o3)CC2)n1` [compound 833, 5-bromo-N-(cis-4-{[4-(dimethylamino)pyrimidin-2-yl]amino}cyclohexyl)-2-furamide] as the compound, how does the class read?
**A.** 1 (Class 1: The value of percent of control at 10^−7 M was less than 40% or the value of IC50 was less than 50 nM.)

**Q.** With `CN(C)c1ccnc(N[C@H]2CC[C@@H](NC(=O)CCC3CCCCC3)CC2)n1` [compound 834] as the compound, how does the class read?
**A.** 3 (Class 3 The value of percent of control at 10^−7 M was more than 60% or the value of IC50 was more than 200 nM.)

**Q.** Which class does the source give for `Cc1ccnc(SCC(=O)N[C@H]2CC[C@@H](Nc3nccc(N(C)C)n3)CC2)n1` [compound 835] here?
**A.** 3 (Class 3 The value of percent of control at 10^−7 M was more than 60% or the value of IC50 was more than 200 nM.)

**Q.** `CN(C)c1ccnc(N[C@H]2CC[C@@H](NC(=O)c3ccc(-c4ccc(Cl)cc4)o3)CC2)n1` [compound 836] was tested. Which class did it give?
**A.** 1 (Class 1: The value of percent of control at 10^−7 M was less than 40% or the value of IC50 was less than 50 nM.)

**Q.** With `CN(C)c1ccnc(N[C@H]2CC[C@@H](NC(=O)CCc3ccc(Cl)c(Cl)c3)CC2)n1` [compound 837] as the compound, how does the class read?
**A.** 3 (Class 3 The value of percent of control at 10^−7 M was more than 60% or the value of IC50 was more than 200 nM.)

**Q.** `CN(C)c1ccnc(N[C@H]2CC[C@@H](NC(=O)Cc3ccc(Cl)c(Cl)c3)CC2)n1` [compound 838] was tested. Which class did it give?
**A.** 3 (Class 3 The value of percent of control at 10^−7 M was more than 60% or the value of IC50 was more than 200 nM.)

**Q.** For `COc1cc(CC(=O)N[C@H]2CC[C@@H](Nc3nccc(N(C)C)n3)CC2)cc(OC)c1O` [compound 839], which class is on record?
**A.** 3 (Class 3 The value of percent of control at 10^−7 M was more than 60% or the value of IC50 was more than 200 nM.)

**Q.** For `COc1cc(CC(=O)N[C@H]2CC[C@@H](Nc3nccc(N(C)C)n3)CC2)cc(OC)c1` [compound 841], which class is on record?
**A.** 3 (Class 3 The value of percent of control at 10^−7 M was more than 60% or the value of IC50 was more than 200 nM.)

**Q.** Which class does the source give for `CN(C)c1ccnc(N[C@H]2CC[C@@H](NC(=O)Cc3cc(C(C)(C)C)c(O)c(C(C)(C)C)c3)CC2)n1` [compound 842] here?
**A.** 1 (Class 1: The value of percent of control at 10^−7 M was less than 40% or the value of IC50 was less than 50 nM.)

**Q.** With `CN(C)c1cccc(C(=O)N[C@H]2CC[C@@H](Nc3nccc(N(C)C)n3)CC2)c1` [compound 844] as the compound, how does the class read?
**A.** 2 (Class 2: The value of percent of control at 10^−7 M was from 40% to 60% or the value of IC′50 was from 50 nM to 200 nM.)

**Q.** Which class does the source give for `CN(C)c1ccnc(N[C@H]2CC[C@@H](NC(=O)c3cc(Br)c(Br)o3)CC2)n1` [compound 845] here?
**A.** 1 (Class 1: The value of percent of control at 10^−7 M was less than 40% or the value of IC50 was less than 50 nM.)

**Q.** How did the class turn out when `CN(C)c1ccnc(N[C@H]2CC[C@@H](NC(=O)CCC(=O)c3ccc(F)cc3)CC2)n1` [compound 846] was run?
**A.** 3 (Class 3 The value of percent of control at 10^−7 M was more than 60% or the value of IC50 was more than 200 nM.)

**Q.** `CN(C)c1ccnc(N[C@H]2CC[C@@H](NC(=O)[C@H](Cc3cn(Cc4ccccc4)cn3)NC(=O)OC(C)(C)C)CC2)n1` [compound 848] was tested. Which class did it give?
**A.** 3 (Class 3 The value of percent of control at 10^−7 M was more than 60% or the value of IC50 was more than 200 nM.)

**Q.** Which class does the source give for `CN(C)c1ccnc(N[C@H]2CC[C@@H](NC(=O)Cc3c[nH]c4ccccc34)CC2)n1` [compound 850] here?
**A.** 2 (Class 2: The value of percent of control at 10^−7 M was from 40% to 60% or the value of IC′50 was from 50 nM to 200 nM.)

**Q.** For `Cc1sc(-c2ccccc2)nc1CC(=O)N[C@H]1CC[C@@H](Nc2nccc(N(C)C)n2)CC1` [compound 851, N-(cis-4-{[4-(dimethylamino)pyrimidin-2-yl]amino}cyclohexyl)-2-(5-methyl-2-phenyl-1,3-thiazol-4-yl)acetamide], which class is on record?
**A.** 2 (Class 2: The value of percent of control at 10^−7 M was from 40% to 60% or the value of IC′50 was from 50 nM to 200 nM.)

**Q.** `COc1ccc(CSC2(CC(=O)N[C@H]3CC[C@@H](Nc4nccc(N(C)C)n4)CC3)CCCCC2)cc1` [compound 853] was tested. Which class did it give?
**A.** 3 (Class 3 The value of percent of control at 10^−7 M was more than 60% or the value of IC50 was more than 200 nM.)

**Q.** How did the class turn out when `COc1ccc2c(CC(=O)N[C@H]3CC[C@@H](Nc4nccc(N(C)C)n4)CC3)cc(=O)oc2c1` [compound 854] was run?
**A.** 3 (Class 3 The value of percent of control at 10^−7 M was more than 60% or the value of IC50 was more than 200 nM.)

**Q.** With `Cc1cc(C)c(NC(=O)Nc2ccc(OC(F)(F)F)cc2)c(C(=O)N[C@H]2CC[C@@H](Nc3nccc(N(C)C)n3)CC2)c1` [compound 857] as the compound, how does the class read?
**A.** 3 (Class 3 The value of percent of control at 10^−7 M was more than 60% or the value of IC50 was more than 200 nM.)

**Q.** For `CN(C)c1ccnc(N[C@H]2CC[C@@H](NC(=O)c3cc(Cl)cc(Cl)c3NC(=O)C#Cc3ccccc3)CC2)n1` [compound 858], which class is on record?
**A.** 2 (Class 2: The value of percent of control at 10^−7 M was from 40% to 60% or the value of IC′50 was from 50 nM to 200 nM.)

**Q.** How did the class turn out when `CN(C)c1ccnc(N[C@H]2CC[C@@H](NC(=O)c3cccc(-n4c(-c5ccc(Br)cc5)cc5c4CC(C)(C)CC5=O)c3)CC2)n1` [compound 859] was run?
**A.** 3 (Class 3 The value of percent of control at 10^−7 M was more than 60% or the value of IC50 was more than 200 nM.)
